Data reported in patent US5137920A, “Method of treating fungal infections” (Hoffmann-La Roche Inc., priority 1989, dated 1992).
Structures can show the parent of a compound that is named as a salt. Where two headings read alike, the source gives them in different places.

Legend:
[1] = target: T1, 2,3-epoxysqualene-lanosterol cyclase (Candida albicans, UniProt Q04782); experiment: Inhibition of 2,3-epoxysqualene-lanosterol cyclase from Candida albicans (14C-squalene epoxide, cell-free extract); type: biochemical
T1 construct: there was obtained a cell-free extract (CFE) as the supernatant; endogenous in cells; host or cells: Candida albicans culture (cell-free extract, 10000 g supernatant of ruptured protoplasts)
T1 sequence (Q04782 whole entry): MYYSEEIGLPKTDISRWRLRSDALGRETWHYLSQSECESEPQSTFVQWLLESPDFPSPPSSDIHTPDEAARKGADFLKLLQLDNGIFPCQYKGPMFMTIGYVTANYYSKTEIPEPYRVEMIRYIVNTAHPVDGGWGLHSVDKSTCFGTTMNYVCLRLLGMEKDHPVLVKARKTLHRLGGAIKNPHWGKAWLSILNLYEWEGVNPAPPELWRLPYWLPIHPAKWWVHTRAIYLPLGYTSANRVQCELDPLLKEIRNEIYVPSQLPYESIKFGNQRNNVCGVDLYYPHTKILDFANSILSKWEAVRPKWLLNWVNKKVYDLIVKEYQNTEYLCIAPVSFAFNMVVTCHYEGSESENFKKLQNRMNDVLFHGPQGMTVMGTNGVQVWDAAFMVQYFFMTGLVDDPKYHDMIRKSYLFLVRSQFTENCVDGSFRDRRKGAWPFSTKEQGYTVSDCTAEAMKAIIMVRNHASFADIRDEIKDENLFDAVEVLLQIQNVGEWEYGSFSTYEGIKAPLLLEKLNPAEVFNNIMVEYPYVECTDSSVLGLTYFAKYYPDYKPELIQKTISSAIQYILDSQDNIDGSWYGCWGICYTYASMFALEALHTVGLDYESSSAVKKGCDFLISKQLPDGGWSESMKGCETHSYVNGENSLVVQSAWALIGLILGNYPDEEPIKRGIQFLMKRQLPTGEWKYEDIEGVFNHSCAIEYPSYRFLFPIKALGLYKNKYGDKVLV

Candida albicans = experiment: Agar dilution method, application alone and in combination with ketoconazole (synergistic activity); type: cell-based; conditions: for FIC (fractional inhibitory concentration): Compound 1 + ketoconazole, synergistic if <0.5; for MIC: Candida albicans, 48 h, casitone agar, 37° C., 2 days
[2] = Acute toxicity in the case of subcutaneous administration to mice; conditions: mouse, in vivo, sc
Protocol: The IC50 values were determined graphically and are given in μg of test substance per ml. Table I contains IC50 values determined in the above test for representative members of the class of compound defined by formula I as well as data concerning the acute toxicity in the case of subcutaneous administration to mice (LD50 in mg/kg).

[3] = C. albicans cell-free extract, pH 6.9, 30°, 1 hour, read-out: IC50 (converted)

**Q.** Which IC50 [1, 3] does the source give for `Cc1ccccc1CCC(=O)c1ccc(CCCN(C)C)cc1` [Compound 9, 3-(2-methylphenyl)-4'-[3-(dimethylamino)propyl]propiophenone] here?
**A.** Its IC50 is 355 nM.

**Q.** With `CN(C)CCCc1ccc(C(=O)CCc2cccc(Cl)c2)cc1` [Compound 10, 3-(3-chlorophenyl)-4'-[3-(dimethylamino)propyl]propiophenone] as the compound, how does the IC50 [1, 3] read?
**A.** Its IC50 is 1330 nM.

**Q.** With `CN(C)CCCCCCCCc1ccc(C(=O)c2ccccc2)cc1` [Compound 16, 4-[8-(Dimethylamino)octyl]benzophenone] as the compound, how does the IC50 [1, 3] read?
**A.** Its IC50 is 415 nM.

**Q.** For `CN(C)CCCCCCCc1ccc(C(=O)c2ccccc2)cc1` [Compound 1, 4-[7-(dimethylamino)heptyl]benzophenone], which “FIC (fractional inhibitory concentration)” value (Candida albicans; C. albicans B4) is on record?
**A.** The value was 0.06.

**Q.** What about the MIC in combination (Candida albicans; C. albicans B4, Compound 1 in combination with ketoconazole) of the same compound?
**A.** The MIC in combination was 1.2 µg/mL.

**Q.** And the “FIC (fractional inhibitory concentration)” value (Candida albicans; C. albicans B5)?
**A.** Its value is 0.53.

**Q.** And the MIC in combination (Candida albicans; C. albicans B5, Compound 1 in combination with ketoconazole)?
**A.** Its MIC in combination is 1.2 µg/mL.

**Q.** And the “FIC (fractional inhibitory concentration)” value (Candida albicans; C. albicans H12)?
**A.** The value was 0.19.

**Q.** What about the MIC in combination (Candida albicans; C. albicans H12, Compound 1 in combination with ketoconazole) of the same compound?
**A.** Its MIC in combination is 2.5 µg/mL.

**Q.** What about the “FIC (fractional inhibitory concentration)” value (Candida albicans; C. albicans H29) of the same compound?
**A.** Its value is 0.19.

**Q.** And the MIC in combination (Candida albicans; C. albicans H29, Compound 1 in combination with ketoconazole)?
**A.** Its MIC in combination is 1.2 µg/mL.

**Q.** And the “FIC (fractional inhibitory concentration)” value (Candida albicans; C. albicans H42)?
**A.** The value was 0.005.

**Q.** What about the MIC in combination (Candida albicans; C. albicans H42, Compound 1 in combination with ketoconazole) of the same compound?
**A.** The MIC in combination was 1.2 µg/mL.

**Q.** And the MIC (Candida albicans; C. albicans B4, Compound 1 alone)?
**A.** Its MIC is 20 µg/mL.

**Q.** And the MIC (Candida albicans; C. albicans B5, Compound 1 alone)?
**A.** The MIC was 20 µg/mL.

**Q.** And the MIC (Candida albicans; C. albicans H12, Compound 1 alone)?
**A.** The MIC was 20 µg/mL.

**Q.** What about the MIC (Candida albicans; C. albicans H29, Compound 1 alone) of the same compound?
**A.** The MIC was 10 µg/mL.

**Q.** What about the MIC (Candida albicans; C. albicans H42, Compound 1 alone) of the same compound?
**A.** The MIC was 20 µg/mL.

**Q.** What about the synergistic activity (Candida albicans; in combination with ketoconazole, C. albicans) of the same compound?
**A.** The synergistic activity was “confirms the synergistic activity”.

**Q.** And the LD50 [2]?
**A.** Its LD50 is 312 to 625 mg/kg.

**Q.** And the IC50 [1]?
**A.** Its IC50 is 526 nM.

**Q.** For `C=CCN(C)CCCCCCCc1ccc(C(=O)c2ccccc2)cc1` [Compound 21, 4-[7-(Allylmethylamino)heptyl]benzophenone], which IC50 [1] is on record?
**A.** The IC50 was 143 nM.

**Q.** With `CN(C)CCCCCCCc1ccc(C(=O)c2ccc(F)cc2)cc1` [Compound 3, 4'-fluoro-4-[7-(dimethylamino)heptyl]benzophenone] as the compound, how does the IC50 [1, 3] read?
**A.** Its IC50 is 1230 nM.

**Q.** For `CN(C)CCCCCCCc1ccc(C(=O)c2ccc(Cl)cc2)cc1` [Compound 17, 4-chloro-4'-[7-(dimethylamino)heptyl]benzophenone], which IC50 [1, 3] is on record?
**A.** The IC50 was 1370 nM.

**Q.** For `C=CCN(C)CCCCCCCc1ccc(C(=O)c2ccc(C#N)cc2)cc1` [Compound 23, 4-[4'-[7-(Allylmethylamino)heptyl]benzoyl]benzonitrile], which IC50 [1] is on record?
**A.** Its IC50 is 160 nM.

**Q.** Which IC50 [1, 3] does the source give for `CN(C)CCCCCCc1ccc(C(=O)c2ccc([N+](=O)[O-])cc2)cc1` [Compound 28, 4-[6-(Dimethylamino)hexyl]-4'-nitrobenzophenone] here?
**A.** The IC50 was 592 nM.

**Q.** For `Cc1ccccc1C(=O)c1ccc(CCCCCCN(C)C)cc1` [Compound 27, 4-[6-(Dimethylamino)hexyl]-2'-methylbenzophenone], which IC50 [1, 3] is on record?
**A.** The IC50 was 495 nM.

**Q.** With `CN(C)CCCCCCc1ccc(C(=O)c2ccccc2Cl)cc1` [Compound 29, 2-Chloro-4'-[6-(dimethylamino)hexyl]benzophenone] as the compound, how does the IC50 [1, 3] read?
**A.** The IC50 was 320 nM.

**Q.** With `CN(C)CCCCCCCc1ccc(C(=O)c2ccc(Cl)cc2Cl)cc1` [Compound 19, 2,4-Dichloro-4'-[7-(dimethylamino)heptyl]benzophenone] as the compound, how does the IC50 [1, 3] read?
**A.** Its IC50 is 1910 nM.

**Q.** For `CN(C)CCCc1ccc(C(=O)c2ccccc2)cc1` [Compound 14], which IC50 [1, 3] is on record?
**A.** Its IC50 is 18700 nM.

**Q.** With `CC(=O)N1CCN(c2ccc(OCC3COC(Cn4ccnc4)(c4ccc(Cl)cc4Cl)O3)cc2)CC1` (stereo not drawn) [Ketoconazole, reference compound] as the compound, how does the MIC in combination (Candida albicans; C. albicans B4, Ketoconazole in combination with Compound 1) read?
**A.** The MIC in combination was 0.15 µg/mL.

**Q.** What about the MIC in combination (Candida albicans; C. albicans B5, Ketoconazole in combination with Compound 1) of the same compound?
**A.** The MIC in combination was 0.075 µg/mL.

**Q.** And the MIC in combination (Candida albicans; C. albicans H12, Ketoconazole in combination with Compound 1)?
**A.** Its MIC in combination is 0.3 µg/mL.

**Q.** What about the MIC in combination (Candida albicans; C. albicans H29, Ketoconazole in combination with Compound 1) of the same compound?
**A.** The MIC in combination was 0.075 µg/mL.

**Q.** What about the MIC in combination (Candida albicans; C. albicans H42, Ketoconazole in combination with Compound 1) of the same compound?
**A.** Its MIC in combination is 0.15 µg/mL.

**Q.** What about the MIC (Candida albicans; C. albicans B4, Ketoconazole alone) of the same compound?
**A.** Its MIC is 2.5 µg/mL.

**Q.** And the MIC (Candida albicans; C. albicans B5, Ketoconazole alone)?
**A.** The MIC was 0.15 µg/mL.

**Q.** And the MIC (Candida albicans; C. albicans H12, Ketoconazole alone)?
**A.** The MIC was 5 µg/mL.

**Q.** What about the MIC (Candida albicans; C. albicans H29, Ketoconazole alone) of the same compound?
**A.** The MIC was 1.29 µg/mL.

**Q.** What about the MIC (Candida albicans; C. albicans H42, Ketoconazole alone) of the same compound?
**A.** Its MIC is 5 µg/mL.

**Q.** Which IC50 [1, 3] does the source give for `CN(C)CCCCCCCc1ccc(C(=O)Cc2ccccc2)cc1` [Compound 2, 4'-[7-(dimethylamino)heptyl]-2-phenylacetophenone] here?
**A.** Its IC50 is 1420 nM.

**Q.** For `CN(C)CCCc1ccc(C(=O)CCc2ccc(Cl)cc2)cc1` [Compound 7, 3-(4-chlorophenyl)-4'-[3-(dimethylamino)propyl]propiophenone hydrochloride], which IC50 [1, 3] is on record?
**A.** The IC50 was 1090 nM.

**Q.** For `CN(C)CCCCCCCc1ccc(C(=O)c2ccc(Br)cc2)cc1` [Compound 18, 4-Bromo-4'-[7-(dimethylamino)heptyl]benzophenone], which IC50 [1, 3] is on record?
**A.** Its IC50 is 2140 nM.

**Q.** Which IC50 [1, 3] does the source give for `CN(C)CCCCCCCc1ccc(C(=O)c2ccc(C#N)cc2)cc1` [Compound 20] here?
**A.** The IC50 was 746 nM.

**Q.** With `CN(C)CCCCCCCc1ccc(C(=O)c2ccc(F)cc2F)cc1` [Compound 5, 2,4-difluoro-4'-[7-(dimethylamino)heptyl]benzophenone] as the compound, how does the IC50 [1, 3] read?
**A.** The IC50 was 1530 nM.

**Q.** Which IC50 [1, 3] does the source give for `CN(C)CCCCCCCc1ccc(C(=O)c2ccc(C(F)(F)F)cc2)cc1` [Compound 4, 4-[7-(dimethylamino)heptyl]-4'-(trifluoromethyl)benzophenone] here?
**A.** Its IC50 is 3450 nM.

**Q.** Which IC50 [1, 3] does the source give for `CN(C)CCCCCCc1ccc(C(=O)c2ccc(Br)cc2)cc1` [Compound 25, 4-Bromo-4'-[6-(dimethylamino)hexyl]benzophenone hydrochloride] here?
**A.** The IC50 was 2170 nM.

**Q.** Which IC50 [1, 3] does the source give for `O=C(CCc1ccccc1)c1ccc(CCCN2CCCC2)cc1` [Compound 13, 3-phenyl-4'-[3-(1-pyrrolidinyl)propyl]propiophenone] here?
**A.** Its IC50 is 1240 nM.

**Q.** For `CN(C)CCCCCCc1ccc(C(=O)c2cccc(Br)c2)cc1` [Compound 26, 3-Bromo-4'-[6-(dimethylamino)hexyl]benzophenone], which IC50 [1, 3] is on record?
**A.** Its IC50 is 1080 nM.

**Q.** With `CN(C)CCCc1ccc(C(=O)CCc2ccc([N+](=O)[O-])cc2)cc1` [Compound 11] as the compound, how does the IC50 [1, 3] read?
**A.** The IC50 was 823 nM.

**Q.** With `CN(C)CCCCCCCCc1ccc(C(=O)c2ccccc2)cc1` [Compound 15] as the compound, how does the IC50 [1, 3] read?
**A.** The IC50 was 1210 nM.

**Q.** With `C=CCN(C)CCCCCCCc1ccc(C(=O)c2ccc(Br)cc2)cc1` [Compound 22, 4-[7-(Allylmethylamino)heptyl]-4'-bromobenzophenone] as the compound, how does the IC50 [1] read?
**A.** Its IC50 is 443 nM.

**Q.** Which IC50 [1, 3] does the source give for `CN(C)CCCc1ccc(C(=O)CCc2ccc(F)cc2)cc1` [Compound 8, 3-(4-fluorophenyl)-4'-[3-(dimethylamino)propyl]propiophenone] here?
**A.** The IC50 was 1750 nM.

**Q.** With `O=C(/C=C/c1ccccc1)c1ccc(CCCN2CCCC2)cc1` [Compound 12, (E)-3-phenyl-4'-[3-(1-pyrrolidinyl)propyl]acrylophenone] as the compound, how does the IC50 [1, 3] read?
**A.** Its IC50 is 783 nM.

**Q.** Which IC50 [1, 3] does the source give for `CN(C)CCCc1ccc(C(=O)/C=C/c2ccc(Cl)cc2)cc1` [Compound 6, (E)-3-(4-chlorophenyl)-4'-[3-(dimethylamino)propyl]acrylophenone] here?
**A.** Its IC50 is 3660 nM.

**Q.** For `C=CCN(C)CCCCCCc1ccc(C(=O)c2ccc(Br)cc2)cc1` [Compound 24, 4-[6-(Allylmethylamino)hexyl]-4'-bromobenzophenone], which LD50 [2] is on record?
**A.** Its LD50 is 312 to 625 mg/kg.

**Q.** And the IC50 [1]?
**A.** The IC50 was 229 nM.
